Laboratory results reported in US11319322B2, “Substituted aryl ether compound, preparation method thereof, pharmaceutical composition and use thereof” (Xiamen University, priority 2017, dated 2022).

Key:
KIF5B-RET-BaF3 = target: T1, KIF5B-RET-BaF3 (Homo sapiens, UniProt P07949); assay: Growth inhibition of KIF5B-RET-BaF3 cells stably transfected with kinase (MTS); type: cell-based; conditions: 48 h, read-out: KIF5B-RET (IC50/nM)
T1 construct: fused on or other part: P33176 (Kinesin-1 heavy chain)
Description: (§1) Growth inhibitory activity of compounds on cell lines stably transfected with kinase
(§2) The activity of compounds against kinase RET is evaluated by their effect of inhibiting growth of cell lines stably transfected with kinase CCDC6-RET-BaF3, KIF5B-RET-BaF3, and wild-type BaF3 (Proc. Natl. Acad. Sci. USA., 2006, 103, 3153-8.). The growth of the cell lines stably transfected with kinase CCDC6-RET-BaF3, KIF5B-RET-BaF3 depends on their kinase activity. If a compound can inhibit the activity of the kinase RET per se or the activity of the RET signaling pathway, the compound can inhibit the growth of BaF3 cells stably transfected with kinase. […] Therefore, a larger ratio between IC50 of a compound to wild-type BaF3 and IC50 of the compound to the cell lines stably transfected with kinase CCDC6-RET-BaF3, KIF5B-RET-BaF3 indicates better targeting.
(§3) The specific test method is given as follows:
(§4) 1) Medium: DMEM (Dulbecco's modified eagle medium) or RPMI 1640 (containing 10% fetal bovine serum, 100 μg/mL ampicillin, 100 μg/mL streptomycin).
(§5) 2) Reagents: MTS reaction solution (containing 2 mg/mL of MTS [3-(4,5-dimethylthiazol-2-yl)-5-(3-carboxymethoxyphenyl)-2-(4-sulfophenyl)-2H-tetrazolium, inner Salt]; 100 μg/mL PES (phenazine […])).
(§6) 3) Compound test: cells stably transfected with kinase (CCDC6-RET-BaF3, KIF5B-RET-BaF3) or wild-type BaF3 cells (2×10^4 cells/well) were incubated into a 96-well culture plate, the volume of cell culture fluid was 90 μL, and then 10 μL of the compound at each gradient concentration was added (the highest concentration was 10 μM, which was diluted stepwise by ⅓, and 8 concentration points were set in total; the system contained 0.1% DMSO (dimethyl sulfoxide)). The cell plate with uniformly mixed compound was cultured in a cell culture incubator (37° C.; 5% CO2) for 48 h, then 20 μL of MTS reaction solution was added, uniformly mixed and incubated in the cell culture incubator (37° C.; 5% CO2) for 1-4 hr, OD values at 490 nm were measured by a microplate reader (VARIOSKAN FLASH, Thermo). Three parallels were set in each group of experiments, with 0.1% (a final concentration) DMSO as a negative control, and a medium without cells or compounds as a blank control. The cell growth inhibition rate was calculated by the following formula: Cell growth inhibition rate %=1−(ODexperimental group−ODblank group)/(ODnegative group−ODblank group)×100%
(§7) 4) IC50 calculation: The semi-inhibitory concentration of the compound acting on cell growth was calculated using GradPad Prism 5 software according to the measured cell growth inhibition rate.

CCDC6-RET-BaF3 = target: T2, CCDC6-RET-BaF3 (Homo sapiens, UniProt P07949); assay: Growth inhibition of CCDC6-RET-BaF3 cells stably transfected with kinase (MTS); type: cell-based; conditions: 48 h, read-out: CCDC6-RET (IC50/nM)
T2 construct: fused on or other part: Q16204 (Coiled-coil domain-containing protein 6)
Description: as §1, §2, §3, §4, §5, §6, §7

T1 sequence (P07949 whole entry, change not shown, the tested form may be a part): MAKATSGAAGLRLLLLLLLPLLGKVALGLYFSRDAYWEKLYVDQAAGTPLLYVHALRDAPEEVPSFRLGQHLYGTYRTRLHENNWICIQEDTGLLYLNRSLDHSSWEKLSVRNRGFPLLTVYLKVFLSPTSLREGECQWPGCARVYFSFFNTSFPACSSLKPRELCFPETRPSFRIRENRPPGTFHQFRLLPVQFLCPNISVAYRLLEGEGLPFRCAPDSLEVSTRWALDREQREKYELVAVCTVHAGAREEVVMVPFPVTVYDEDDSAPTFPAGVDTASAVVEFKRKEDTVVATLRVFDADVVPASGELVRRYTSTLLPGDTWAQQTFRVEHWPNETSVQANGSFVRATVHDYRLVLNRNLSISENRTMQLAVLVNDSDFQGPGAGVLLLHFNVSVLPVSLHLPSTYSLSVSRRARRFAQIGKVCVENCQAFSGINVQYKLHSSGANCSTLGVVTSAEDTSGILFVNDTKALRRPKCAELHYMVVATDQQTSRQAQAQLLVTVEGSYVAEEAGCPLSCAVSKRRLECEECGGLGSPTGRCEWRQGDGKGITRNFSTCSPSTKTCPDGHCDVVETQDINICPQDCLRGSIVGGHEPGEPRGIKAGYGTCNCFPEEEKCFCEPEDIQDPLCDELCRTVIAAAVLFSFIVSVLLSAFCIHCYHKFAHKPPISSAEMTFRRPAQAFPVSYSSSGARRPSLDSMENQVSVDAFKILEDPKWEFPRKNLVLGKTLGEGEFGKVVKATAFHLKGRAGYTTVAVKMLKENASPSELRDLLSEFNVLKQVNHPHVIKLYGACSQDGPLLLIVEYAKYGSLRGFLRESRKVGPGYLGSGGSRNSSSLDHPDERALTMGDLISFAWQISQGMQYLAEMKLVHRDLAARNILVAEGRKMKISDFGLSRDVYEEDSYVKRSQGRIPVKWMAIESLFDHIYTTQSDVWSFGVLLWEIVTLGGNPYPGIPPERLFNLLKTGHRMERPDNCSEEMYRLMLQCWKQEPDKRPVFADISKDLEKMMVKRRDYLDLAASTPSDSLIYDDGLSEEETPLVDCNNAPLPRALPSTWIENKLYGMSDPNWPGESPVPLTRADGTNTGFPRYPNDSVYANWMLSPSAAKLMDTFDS
T2 sequence (P07949 whole entry, change not shown, the tested form may be a part): as above

Row | Compound | GI50 (KIF5B-RET-BaF3) [nM] | GI50 (CCDC6-RET-BaF3) [nM]
1 | Cc1ccc(Oc2nc(-c3cccc(Cl)c3)nc3c2ncn3C)cc1C(=O)Nc1ccc(CN2CCN(C)CC2)c(C(F)(F)F)c1 [I-n-5] | 1510 | 1540
2 | Cc1ccc(Oc2nc(-c3cccc(O)c3)nc3c2ncn3C)cc1C(=O)Nc1ccc(CN2CCN(C)CC2)c(C(F)(F)F)c1 [I-n-7] | 1450 | 1560
3 | CN1CCN(Cc2ccc(NC(=O)c3cc(Oc4nc(-c5cccnc5)nc5c4cnn5C)ccc3Cl)cc2C(F)(F)F)CC1 [II-o-1] | 4020 | 4170
4 | Cc1ccc(Oc2cc(-c3ccncc3)nc3sccc23)cc1NC(=O)c1ccc(CN2CCN(C)CC2)c(C(F)(F)F)c1 [VII-j-2] | 189 | 95.6
5 | CC(=O)NC1CCN(c2ccc(NC(=O)c3ccc(C)c(Oc4nc(-c5ccncc5)nc5ccn(C)c45)c3)cc2C(F)(F)F)CC1 [III-v-9] | 1750 | 4210
6 | CN1CCN(Cc2ccc(NC(=O)c3cc(Oc4nc(-c5cccnc5)nc5nn(C)cc45)ccc3Cl)cc2C(F)(F)F)CC1 [IV-o-1] | 1720 | 1980
7 | Cc1ccc(Oc2nc(-c3ccccc3)nc3c2ncn3C)cc1C(=O)Nc1ccc(CN2CCN(C)CC2)c(C(F)(F)F)c1 [I-n-4] | 2370 | 2700
8 | CC(=O)NCC1CCN(c2ccc(NC(=O)c3ccc(C)c(Oc4nc(-c5ccncc5)nc5c4cnn5C)c3)cc2C(F)(F)F)CC1 [II-v-11] | 646 | 546
9 | Cc1ccc(Oc2nc(-c3ccoc3)nc3nn(C)cc23)cc1C(=O)Nc1ccc(CN2CCN(C)CC2)c(C(F)(F)F)c1 [IV-n-10] | 1840 | 2160
10 | CN1CCN(Cc2ccc(NC(=O)c3cc(Oc4nc(-c5cccc(N)c5)nc5c4ncn5C)ccc3Cl)cc2C(F)(F)F)CC1 [I-o-8] | 1490 | 1590
11 | CN1CCN(Cc2ccc(NC(=O)c3cc(Oc4cc(-c5cccnc5)nc5sccc45)ccc3Cl)cc2C(F)(F)F)CC1 [VII-o-1] | 1630 | 1570
12 | CCS(=O)(=O)NC1CCN(c2ccc(NC(=O)c3ccc(C)c(Oc4nc(-c5ccncc5)nc5c4cnn5C)c3)cc2C(F)(F)F)CC1 [II-v-15] | 135 | 114
13 | Cc1ccc(Oc2nc(-c3ccc(Cl)cc3)nc3c2ncn3C)cc1C(=O)Nc1ccc(CN2CCN(C)CC2)c(C(F)(F)F)c1 [I-n-6] | 1380 | 1780
14 | CN1CCN(Cc2ccc(NC(=O)c3cc(Oc4cc(-c5ccncc5)nc5sccc45)ccc3Cl)cc2C(F)(F)F)CC1 [VII-o-2] | 499 | 326
15 | Cc1ccc(NC(=O)c2ccc(CN3CCN(C)CC3)c(C(F)(F)F)c2)cc1Oc1nc(-c2cccnc2)nc2c1cnn2C [II-i-1] | 411 | 477
16 | CN1CCN(Cc2ccc(NC(=O)c3cc(Oc4nc(-c5ccc(Cl)cc5)nc5c4ncn5C)ccc3Cl)cc2C(F)(F)F)CC1 [I-o-5] | 1390 | 1320
17 | Cc1ccc(C(=O)Nc2cccc(C(F)(F)F)c2)cc1Oc1nc(-c2cccnc2)nc2c1cnn2C [II-e-1] | 2240 | 1970
18 | CCC(=O)NC1CCN(c2ccc(NC(=O)c3ccc(C)c(Oc4nc(-c5ccncc5)nc5c4cnn5C)c3)cc2C(F)(F)F)CC1 [II-v-8] | 407 | 346
19 | CCC(=O)NCC1CCN(c2ccc(NC(=O)c3ccc(C)c(Oc4nc(-c5cccnc5)nc5cc[nH]c45)c3)cc2C(F)(F)F)CC1 [III-v-12] | 191 | 149
20 | CN1CCN(Cc2ccc(NC(=O)c3cccc(Oc4cc(-c5ccncc5)nc5sccc45)c3)cc2C(F)(F)F)CC1 [VII-l-2] | 315 | 215
21 | Cc1ccc(Oc2cc(-c3ccncc3)nc3sccc23)cc1C(=O)Nc1ccc(CN2CCN(C)CC2)c(C(F)(F)F)c1 [VII-n-2] | 405 | 221
22 | Cc1ccc(Oc2nc(-c3ccncc3)nc3cc[nH]c23)cc1C(=O)Nc1ccc(CN2CCN(C)CC2)c(C(F)(F)F)c1 [III-n-2] | 21 | 53.7
23 | Cc1ccc(Oc2nc(-c3ccncc3)nc3ccn(C)c23)cc1NC(=O)c1ccc(CN2CCN(C)CC2)c(C(F)(F)F)c1 [III-j-6] | 13.2 | 28

Row | Compound | GI50 (KIF5B-RET-BaF3) [nM] | GI50 (CCDC6-RET-BaF3) [nM]
24 | Cc1ccc(C(=O)Nc2ccc(CN3CCN(C)CC3)c(C(F)(F)F)c2)cc1Oc1nc(-c2ccccc2)nc2c1cnn2C [II-m-3] | 97.7 | 348
25 | Cc1ccc(Oc2nc(-c3cccc(Cl)c3)nc3nn(C)cc23)cc1C(=O)Nc1ccc(CN2CCN(C)CC2)c(C(F)(F)F)c1 [IV-n-4] | 1710 | 3900
26 | Cc1ccc(C(=O)Nc2ccc(CN3CCN(C)CC3)c(C(F)(F)F)c2)cc1Oc1nc(-c2cccnc2)nc2cc[nH]c12 [III-m-1] | 2100 | 4500
27 | Cc1ccc(NC(=O)c2ccc(CN3CCN(C)CC3)c(C(F)(F)F)c2)cc1Oc1cc(-c2ccncc2)nc2sccc12 [VII-i-2] | 1330 | 1360
28 | CN1CCN(Cc2ccc(NC(=O)c3cc(Oc4nc(-c5ccc(Cl)cc5)nc5nn(C)cc45)ccc3Cl)cc2C(F)(F)F)CC1 [IV-o-5] | 3390 | 4090
29 | CCC(=O)NCC1CCN(c2ccc(NC(=O)c3ccc(C)c(Oc4nc(-c5cccnc5)nc5c4cnn5C)c3)cc2C(F)(F)F)CC1 [II-v-7] | 1200 | 1200
30 | CN1CCN(Cc2ccc(C(=O)Nc3cc(Oc4nc(-c5ccncc5)nc5c4cnn5C)ccc3Cl)cc2C(F)(F)F)CC1 [II-k-2] | 114 | 15.8
31 | Cc1ccc(Oc2nc(-c3cccc(N)c3)nc3nn(C)cc23)cc1C(=O)Nc1ccc(CN2CCN(C)CC2)c(C(F)(F)F)c1 [IV-n-8] | 1620 | 2090
32 | Cc1ccc(Oc2nc(-c3ccccc3)nc3nn(C)cc23)cc1C(=O)Nc1ccc(CN2CCN(C)CC2)c(C(F)(F)F)c1 [IV-n-3] | 3540 | 4150
33 | Cc1ccc(Nc2nc(Oc3cc(C(=O)Nc4ccc(CN5CCN(C)CC5)c(C(F)(F)F)c4)ccc3C)c3cnn(C)c3n2)cc1 [II-m-13] | 172 | 253
34 | Cc1ccc(C(=O)Nc2ccc(CN3CCN(C)CC3)c(C(F)(F)F)c2)cc1Oc1nc(-c2ccoc2)nc2c1cnn2C [II-m-9] | 14.6 | 75.1
35 | CC(=O)NCC1CCN(c2ccc(NC(=O)c3ccc(C)c(Oc4nc(-c5cccnc5)nc5c4cnn5C)c3)cc2C(F)(F)F)CC1 [II-v-10] | 463 | 492
36 | Cc1ccc(NC(=O)c2ccc(CN3CCN(C)CC3)c(C(F)(F)F)c2)cc1Oc1nc(-c2cccnc2)nc2cc[nH]c12 [III-i-1] | 2850 | 4110
37 | CC(C)n1cnc2c(Oc3cccc(NC(=O)c4ccc(CN5CCN(C)CC5)c(C(F)(F)F)c4)c3)nc(-c3ccncc3)nc21 [I-h-1] | 2290 | 4930
38 | Cc1ccc(Oc2nc(-c3ccc(O)cc3)nc3nn(C)cc23)cc1C(=O)Nc1ccc(CN2CCN(C)CC2)c(C(F)(F)F)c1 [IV-n-7] | 3940 | 2810
39 | Cc1ccc(NC(=O)c2ccc(CN3CCN(C)CC3)c(C(F)(F)F)c2)cc1Oc1nc(-c2cccnc2)nc2ccn(C)c12 [III-i-3] | 3630 | 4340
40 | Cc1ccc(Oc2nc(-c3ccc(N)cc3)nc3c2ncn3C)cc1C(=O)Nc1ccc(CN2CCN(C)CC2)c(C(F)(F)F)c1 [I-n-10] | 1400 | 1400
41 | Cc1ccc(Oc2nc(-c3ccncc3)nc3nn(C)cc23)cc1NC(=O)c1cccc(C(F)(F)F)c1 [IV-c-2] | 2840 | 1680
42 | Cc1ccc(Oc2nc(-c3cccnc3)nc3c2cnn3C)cc1NC(=O)c1ccc(CN2CCN(C)CC2)c(C(F)(F)F)c1 [II-j-1] | 4420 | 4170
43 | Cc1ccc(Oc2nc(-c3cccc(O)c3)nc3nn(C)cc23)cc1C(=O)Nc1ccc(CN2CCN(C)CC2)c(C(F)(F)F)c1 [IV-n-6] | 4230 | 4310
44 | CN1CCN(Cc2ccc(C(=O)Nc3cccc(Oc4nc(-c5ccncc5)nc5ccn(C)c45)c3)cc2C(F)(F)F)CC1 [III-h-4] | 180 | 195
45 | CN1CCN(Cc2ccc(NC(=O)c3cc(Oc4nc(-c5ccc(O)cc5)nc5nn(C)cc45)ccc3Cl)cc2C(F)(F)F)CC1 [IV-o-7] | 1610 | 1510
